# Experimental data as given in ChEMBL document CHEMBL1201862, “PubChem BioAssay data set” (2004).
# Calls of active or inactive are those of the source.
# Legend:
# Bcl-2-like protein 10 = target: T1, Bcl-2-like protein 10 (Homo sapiens, UniProt Q9HD36); assay: Bcl-B/TR3 peptide binding disruption – biochemical, fluorescence polarization, FITC-TR3 peptide, selectivity assay for Bfl-1 inhibitor project, primary screen (AID 748);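 also: fluorescence polarization from a fluorescein-labelled TR3 peptide binding purified Bcl-B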
# T1 sequence (Q9HD36 whole entry): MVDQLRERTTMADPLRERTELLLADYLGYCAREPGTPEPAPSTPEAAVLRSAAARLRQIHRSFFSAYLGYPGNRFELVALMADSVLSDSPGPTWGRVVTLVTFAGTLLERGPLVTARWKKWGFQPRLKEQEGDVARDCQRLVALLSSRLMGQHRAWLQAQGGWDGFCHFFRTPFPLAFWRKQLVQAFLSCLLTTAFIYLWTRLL
# [1] = luciferase reporter signal suppression in cells – H4 neuroglioma cells, luminescence, dose response (AID 1990); type: functional, cell-based
# [2] = luciferase reporter signal reduction – luminescence, H4-C neuroglioblastoma cells, dose response (AID 2458); type: functional, cell-based;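 also: H4 neuroglioblastoma cells stably carrying a luciferase reporter gene fusion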
# cells = type: functional, cell-based
# [3] = alpha-synuclein stem-loop luciferase translation blockers – H4 neuroglioma cells, luminescence, confirmation (AID 1988); type: functional, cell-based
# Large T antigen = Large T antigen (Simian virus 40, UniProt P03070); type: functional, Betapolyomavirus macacae;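 also: Confirmatory-stage PubChem screen for compounds that inhibit SV40 T antigen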
# Large T antigen, sequence (P03070 whole entry): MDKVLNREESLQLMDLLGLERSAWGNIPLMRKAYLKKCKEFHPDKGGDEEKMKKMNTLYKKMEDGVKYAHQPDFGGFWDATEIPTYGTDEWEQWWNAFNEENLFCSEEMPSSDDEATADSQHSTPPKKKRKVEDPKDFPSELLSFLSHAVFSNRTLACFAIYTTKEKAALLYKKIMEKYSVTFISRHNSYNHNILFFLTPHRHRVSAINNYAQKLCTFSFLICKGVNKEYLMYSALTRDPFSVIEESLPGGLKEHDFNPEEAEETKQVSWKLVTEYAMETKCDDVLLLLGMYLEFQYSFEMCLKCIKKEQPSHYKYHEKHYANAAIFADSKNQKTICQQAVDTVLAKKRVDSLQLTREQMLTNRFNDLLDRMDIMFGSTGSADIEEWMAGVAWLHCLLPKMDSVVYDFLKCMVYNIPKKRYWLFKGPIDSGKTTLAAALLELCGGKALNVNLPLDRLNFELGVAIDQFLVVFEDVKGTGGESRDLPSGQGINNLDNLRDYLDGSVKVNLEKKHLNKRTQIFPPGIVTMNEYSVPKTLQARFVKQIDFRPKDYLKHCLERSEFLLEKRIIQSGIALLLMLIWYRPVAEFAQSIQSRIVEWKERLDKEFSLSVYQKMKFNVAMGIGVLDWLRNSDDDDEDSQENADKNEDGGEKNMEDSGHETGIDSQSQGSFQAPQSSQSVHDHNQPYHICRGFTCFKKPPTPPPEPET
# [4] = alpha-synuclein stem-loop translation blockers – luminescence, H4 neuroglioblastoma cells, dose confirmation, confirmation (AID 2454); type: functional, cell-based;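 also: H4 neuroglioblastoma cells carrying an alpha-synuclein 5'UTR luciferase reporter; potency for inhibition of the luciferase signal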
# Nonstructural protein 1 = Nonstructural protein 1 (Influenza A virus, UniProt Q194T2); type: functional, Influenza A virus (A/California/07/2009(H1N1))
# Nonstructural protein 1, sequence (Q194T2 whole entry): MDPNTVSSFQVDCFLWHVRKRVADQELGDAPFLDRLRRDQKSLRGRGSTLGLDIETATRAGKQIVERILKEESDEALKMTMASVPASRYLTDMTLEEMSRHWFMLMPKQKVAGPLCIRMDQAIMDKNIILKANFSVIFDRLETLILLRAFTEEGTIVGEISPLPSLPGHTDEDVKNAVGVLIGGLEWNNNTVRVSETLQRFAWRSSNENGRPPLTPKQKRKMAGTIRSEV
# [5] = Luminescence Cell-Based Dose Response HTS to Identify Inhibitors of 5'UTR Stem-Loop Driven Prion Protein mRNA Translation in H4 Neuroglioblastoma Cells. [Related pubchem assays: 1827 (Project Summary), 1813 (Primary HTS)]; type: functional
# [6] = HEK-293T viability loss after treatment – luminescence, T-cell screen hits, cytotoxicity control for TCR NF-kB inhibitor project, dose response (AID 489026); type: functional, cell-based;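 also: cells exposed to compound about 14 hours before the viability readout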
# Cytochrome P450 3A4 [7] = target: T2, Cytochrome P450 3A4 (Homo sapiens, UniProt P08684);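 also: CYP3A4 tested as one member of a cytochrome P450 panel screen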
# T2 sequence (P08684 whole entry): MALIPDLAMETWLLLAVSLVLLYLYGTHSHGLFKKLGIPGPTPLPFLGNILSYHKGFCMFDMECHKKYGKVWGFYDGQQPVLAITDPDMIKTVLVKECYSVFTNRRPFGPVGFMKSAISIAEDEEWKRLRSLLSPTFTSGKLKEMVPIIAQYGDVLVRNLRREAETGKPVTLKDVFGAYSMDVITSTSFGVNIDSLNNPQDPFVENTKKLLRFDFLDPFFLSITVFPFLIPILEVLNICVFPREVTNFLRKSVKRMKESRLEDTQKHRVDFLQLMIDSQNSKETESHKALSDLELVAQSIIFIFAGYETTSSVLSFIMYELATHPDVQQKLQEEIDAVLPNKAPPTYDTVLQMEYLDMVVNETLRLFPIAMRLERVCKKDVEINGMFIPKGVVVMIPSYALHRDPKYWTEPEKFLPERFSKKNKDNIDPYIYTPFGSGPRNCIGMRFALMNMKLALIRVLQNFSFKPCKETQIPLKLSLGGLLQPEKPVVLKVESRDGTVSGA
# Troponin, cardiac muscle = Troponin, cardiac muscle (Homo sapiens, UniProt P19429+P45379+P63316); assay: Fluorescence-based biochemical high throughput dose response assay for activators of the calcium sensitivity of cardiac Regulated Thin Filaments (RTF). [Related pubchem assays (depositor defined):AID493008, AID493018, AID504382, AID504383]; type: protein-complex assay
# Aminopeptidase N = target: T3, Aminopeptidase N (Plasmodium falciparum FcB1/Columbia, UniProt O96935); assay: malaria alanyl aminopeptidase activity blockers – biochemical, fluorogenic H-Leu-NHMec substrate, 1536-well (AID 1445); design: species or system Plasmodium falciparum 3D7, 3D7
# T3 sequence (O96935 whole entry): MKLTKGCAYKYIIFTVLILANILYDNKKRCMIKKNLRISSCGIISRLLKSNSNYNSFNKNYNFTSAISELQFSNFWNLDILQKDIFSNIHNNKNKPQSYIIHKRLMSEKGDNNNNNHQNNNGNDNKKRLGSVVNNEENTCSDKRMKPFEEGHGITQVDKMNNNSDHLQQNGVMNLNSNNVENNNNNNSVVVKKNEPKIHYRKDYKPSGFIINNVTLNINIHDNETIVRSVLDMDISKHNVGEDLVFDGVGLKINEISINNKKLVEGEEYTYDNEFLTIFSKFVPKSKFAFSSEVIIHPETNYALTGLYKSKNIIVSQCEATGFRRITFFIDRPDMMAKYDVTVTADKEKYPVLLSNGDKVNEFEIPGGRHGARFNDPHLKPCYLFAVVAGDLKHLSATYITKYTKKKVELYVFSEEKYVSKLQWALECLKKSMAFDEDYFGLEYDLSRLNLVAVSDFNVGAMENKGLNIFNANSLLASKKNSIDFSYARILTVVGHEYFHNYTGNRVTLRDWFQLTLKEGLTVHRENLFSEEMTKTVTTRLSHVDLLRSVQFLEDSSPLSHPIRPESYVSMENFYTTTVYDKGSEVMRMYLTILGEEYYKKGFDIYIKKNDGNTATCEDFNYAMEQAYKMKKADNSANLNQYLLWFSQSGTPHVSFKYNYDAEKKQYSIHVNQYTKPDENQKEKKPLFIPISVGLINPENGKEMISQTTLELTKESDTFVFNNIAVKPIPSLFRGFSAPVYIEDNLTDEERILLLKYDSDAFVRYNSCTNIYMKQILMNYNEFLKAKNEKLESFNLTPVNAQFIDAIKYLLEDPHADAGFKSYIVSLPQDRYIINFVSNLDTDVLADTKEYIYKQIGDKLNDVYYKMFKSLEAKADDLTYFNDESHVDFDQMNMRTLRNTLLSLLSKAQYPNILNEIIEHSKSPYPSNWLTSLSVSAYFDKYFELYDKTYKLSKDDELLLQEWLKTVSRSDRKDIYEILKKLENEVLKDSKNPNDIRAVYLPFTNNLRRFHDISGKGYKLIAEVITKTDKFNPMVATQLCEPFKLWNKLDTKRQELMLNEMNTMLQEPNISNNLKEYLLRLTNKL
# [8] = Trypanosoma cruzi growth suppression in host cells – NIH3T3 host cells, beta-gal luminescence, confirmation (AID 2044); type: functional, cell-based;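 also: intracellular parasites grown in NIH/3T3 mouse fibroblasts as host cells; luminescent beta-galactosidase reporter signal from transgenic T. cruzi replicating inside host cells; inhibitors lower the luminescence signal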
# [9] = NIH3T3 cell viability loss – ATP luminescence, mouse fibroblasts, counter-screen, dose response (AID 2010); type: functional, cell-based;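 also: cells exposed to compound for about 90 hours before reading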
# [10] = target: Glucose-6-phosphate 1-dehydrogenase (Homo sapiens, UniProt P11413); assay: inhibition of Homo sapiens G6PD, dose series – biochemical, fluorescence, selectivity assay for P. falciparum G6PD inhibitor project, dose response (AID 504792); type: functional
# Glucose-6-phosphate 1-dehydrogenase, sequence (P11413 whole entry): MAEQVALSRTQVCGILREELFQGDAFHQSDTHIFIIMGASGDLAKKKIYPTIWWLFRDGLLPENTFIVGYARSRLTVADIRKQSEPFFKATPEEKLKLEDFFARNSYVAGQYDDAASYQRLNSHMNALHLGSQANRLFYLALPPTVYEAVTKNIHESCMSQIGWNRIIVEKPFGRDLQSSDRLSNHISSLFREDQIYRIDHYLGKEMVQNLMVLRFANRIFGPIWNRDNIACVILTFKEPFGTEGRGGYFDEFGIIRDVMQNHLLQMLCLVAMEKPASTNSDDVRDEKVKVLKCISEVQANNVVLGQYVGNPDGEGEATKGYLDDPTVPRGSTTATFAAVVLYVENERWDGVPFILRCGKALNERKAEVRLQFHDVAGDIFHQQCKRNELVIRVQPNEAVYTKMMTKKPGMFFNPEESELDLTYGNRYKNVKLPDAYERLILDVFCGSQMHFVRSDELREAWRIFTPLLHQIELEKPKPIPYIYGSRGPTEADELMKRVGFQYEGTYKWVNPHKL
# Cytochrome P450 3A4 [11] = target: T2, Cytochrome P450 3A4; remark: listed apart in the source
# SUMO-activating enzyme = SUMO-activating enzyme (Homo sapiens, UniProt Q9UBT2); assay: blockers of UBC9-mediated SUMO conjugation – biochemical, AlphaScreen, SUMOylation inhibitor project, confirmation (AID 2018); type: functional
# SUMO-activating enzyme, sequence (Q9UBE0 whole entry): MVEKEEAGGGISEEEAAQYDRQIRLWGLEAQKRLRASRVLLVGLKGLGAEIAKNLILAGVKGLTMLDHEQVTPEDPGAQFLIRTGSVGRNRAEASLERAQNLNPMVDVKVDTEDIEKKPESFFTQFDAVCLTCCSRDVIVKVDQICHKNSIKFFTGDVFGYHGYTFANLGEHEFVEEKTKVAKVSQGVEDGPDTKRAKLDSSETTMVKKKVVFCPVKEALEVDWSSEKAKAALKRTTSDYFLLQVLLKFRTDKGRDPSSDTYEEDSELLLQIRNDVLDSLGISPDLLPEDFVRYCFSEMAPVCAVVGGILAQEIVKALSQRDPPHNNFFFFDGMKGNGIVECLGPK
# SUMO-activating enzyme, sequence (Q9UBT2 whole entry): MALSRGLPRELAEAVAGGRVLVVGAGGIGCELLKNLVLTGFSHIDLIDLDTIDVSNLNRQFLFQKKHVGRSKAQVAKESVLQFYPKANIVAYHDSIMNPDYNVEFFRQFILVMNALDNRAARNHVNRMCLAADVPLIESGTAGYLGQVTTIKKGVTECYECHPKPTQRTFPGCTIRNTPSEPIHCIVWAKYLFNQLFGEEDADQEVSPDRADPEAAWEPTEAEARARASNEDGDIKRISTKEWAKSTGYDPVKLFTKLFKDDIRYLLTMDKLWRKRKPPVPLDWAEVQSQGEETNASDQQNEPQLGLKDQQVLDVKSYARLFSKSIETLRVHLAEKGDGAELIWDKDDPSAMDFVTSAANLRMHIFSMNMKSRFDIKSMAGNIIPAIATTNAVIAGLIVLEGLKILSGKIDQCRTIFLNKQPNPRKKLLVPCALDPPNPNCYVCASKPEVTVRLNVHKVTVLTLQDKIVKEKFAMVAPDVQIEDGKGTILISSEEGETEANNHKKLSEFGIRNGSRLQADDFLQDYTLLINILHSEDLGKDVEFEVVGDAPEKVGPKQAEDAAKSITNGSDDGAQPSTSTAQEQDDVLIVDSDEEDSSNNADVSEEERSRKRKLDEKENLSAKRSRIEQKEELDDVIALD
# [12] = target: DNA dC->dU-editing enzyme APOBEC-3A (Homo sapiens, UniProt P31941); assay: Dose Response confirmation of small molecule APOBEC3A DNA Deaminase Inhibitors via a fluorescence-based single-stranded DNA deaminase assay. [Related pubchem assays (depositor defined):AID493011, AID493024]; type: functional
# DNA dC->dU-editing enzyme APOBEC-3A, sequence (P31941 whole entry): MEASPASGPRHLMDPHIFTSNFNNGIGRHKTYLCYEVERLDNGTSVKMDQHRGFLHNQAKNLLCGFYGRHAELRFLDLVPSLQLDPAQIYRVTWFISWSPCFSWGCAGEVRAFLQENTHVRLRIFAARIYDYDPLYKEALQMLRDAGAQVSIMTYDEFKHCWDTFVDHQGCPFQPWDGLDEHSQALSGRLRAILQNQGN
# [13] = target: DNA dC->dU-editing enzyme APOBEC-3G (Homo sapiens, UniProt Q9HC16); type: functional;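 also: Dose-response counterscreen measuring inhibition of APOBEC3G DNA deaminase activity, run while confirming APOBEC3A inhibitors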
# DNA dC->dU-editing enzyme APOBEC-3G, sequence (Q9HC16 whole entry): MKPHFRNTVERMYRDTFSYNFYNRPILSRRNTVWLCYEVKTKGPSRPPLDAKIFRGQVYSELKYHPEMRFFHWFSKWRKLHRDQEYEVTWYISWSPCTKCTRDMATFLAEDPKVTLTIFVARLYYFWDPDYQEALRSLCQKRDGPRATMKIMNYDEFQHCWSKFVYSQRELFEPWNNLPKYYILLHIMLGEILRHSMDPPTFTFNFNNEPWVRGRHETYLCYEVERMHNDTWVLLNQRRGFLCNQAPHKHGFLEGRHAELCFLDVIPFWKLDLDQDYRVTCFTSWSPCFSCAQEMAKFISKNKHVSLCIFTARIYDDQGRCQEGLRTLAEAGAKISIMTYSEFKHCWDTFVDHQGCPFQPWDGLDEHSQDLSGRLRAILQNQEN
# Beta-galactosidase = Beta-galactosidase (Escherichia coli, UniProt Q8VNN2); assay: detection-enzyme interference by beta-gal modulators – biochemical, E. coli enzyme, set 3, artefact control for CCR6 antagonist project, dose response (AID 504712); type: functional
# Beta-galactosidase, sequence (Q8VNN2 whole entry): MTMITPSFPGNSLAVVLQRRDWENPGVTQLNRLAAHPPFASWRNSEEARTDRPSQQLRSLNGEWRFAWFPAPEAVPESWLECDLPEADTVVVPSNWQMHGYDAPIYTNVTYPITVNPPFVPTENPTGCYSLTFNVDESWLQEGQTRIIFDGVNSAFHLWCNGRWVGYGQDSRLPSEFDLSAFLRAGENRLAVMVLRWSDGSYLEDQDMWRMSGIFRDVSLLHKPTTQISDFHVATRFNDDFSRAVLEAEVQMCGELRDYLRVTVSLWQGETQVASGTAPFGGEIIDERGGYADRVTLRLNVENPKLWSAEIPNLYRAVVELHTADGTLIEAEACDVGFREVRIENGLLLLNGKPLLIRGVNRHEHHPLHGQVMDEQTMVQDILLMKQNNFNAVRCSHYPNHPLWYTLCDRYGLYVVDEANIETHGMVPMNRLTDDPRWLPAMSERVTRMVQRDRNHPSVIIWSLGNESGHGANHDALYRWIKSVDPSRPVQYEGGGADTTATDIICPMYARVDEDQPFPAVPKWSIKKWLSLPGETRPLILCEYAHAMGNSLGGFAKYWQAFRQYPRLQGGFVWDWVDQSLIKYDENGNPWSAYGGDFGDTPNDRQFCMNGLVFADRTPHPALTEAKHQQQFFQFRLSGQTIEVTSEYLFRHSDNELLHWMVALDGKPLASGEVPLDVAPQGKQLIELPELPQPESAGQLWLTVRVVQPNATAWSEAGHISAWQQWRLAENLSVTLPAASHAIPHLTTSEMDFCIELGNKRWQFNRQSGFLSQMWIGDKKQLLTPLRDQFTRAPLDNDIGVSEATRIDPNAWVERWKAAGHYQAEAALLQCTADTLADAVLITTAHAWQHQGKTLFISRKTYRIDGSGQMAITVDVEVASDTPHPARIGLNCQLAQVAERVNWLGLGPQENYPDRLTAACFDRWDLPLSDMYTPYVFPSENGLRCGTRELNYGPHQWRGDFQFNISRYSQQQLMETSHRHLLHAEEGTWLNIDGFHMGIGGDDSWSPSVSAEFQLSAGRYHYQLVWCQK
# Protein skinhead-1 = target: T4, Protein skinhead-1 (Caenorhabditis elegans, UniProt P34707); type: functional
# T4 sequence (P34707 whole entry): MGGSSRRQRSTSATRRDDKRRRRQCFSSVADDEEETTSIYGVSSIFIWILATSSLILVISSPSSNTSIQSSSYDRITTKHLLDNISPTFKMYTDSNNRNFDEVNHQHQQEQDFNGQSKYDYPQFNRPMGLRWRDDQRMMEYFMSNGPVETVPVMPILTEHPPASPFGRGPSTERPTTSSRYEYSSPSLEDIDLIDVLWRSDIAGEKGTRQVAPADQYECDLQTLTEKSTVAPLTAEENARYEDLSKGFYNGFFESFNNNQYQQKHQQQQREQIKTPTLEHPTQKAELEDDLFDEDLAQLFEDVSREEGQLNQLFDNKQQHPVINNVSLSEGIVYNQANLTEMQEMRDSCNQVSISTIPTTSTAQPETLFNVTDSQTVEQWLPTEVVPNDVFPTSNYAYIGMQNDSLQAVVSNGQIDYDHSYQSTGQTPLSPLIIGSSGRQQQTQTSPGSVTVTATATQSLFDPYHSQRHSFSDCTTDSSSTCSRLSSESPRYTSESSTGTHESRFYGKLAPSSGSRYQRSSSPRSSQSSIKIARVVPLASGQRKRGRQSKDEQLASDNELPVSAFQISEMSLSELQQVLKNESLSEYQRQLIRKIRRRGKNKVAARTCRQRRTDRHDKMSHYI
# [14] = target: T5, Rac GTPase-activating protein 1 (Homo sapiens, UniProt Q9H0H5); assay: blockers of MgcRacGAP-driven Rac1 GTP hydrolysis – biochemical, ADP Hunter fluorescence, primary and confirmatory, confirmation (AID 624330); type: functional
# T5 sequence (Q9H0H5 whole entry): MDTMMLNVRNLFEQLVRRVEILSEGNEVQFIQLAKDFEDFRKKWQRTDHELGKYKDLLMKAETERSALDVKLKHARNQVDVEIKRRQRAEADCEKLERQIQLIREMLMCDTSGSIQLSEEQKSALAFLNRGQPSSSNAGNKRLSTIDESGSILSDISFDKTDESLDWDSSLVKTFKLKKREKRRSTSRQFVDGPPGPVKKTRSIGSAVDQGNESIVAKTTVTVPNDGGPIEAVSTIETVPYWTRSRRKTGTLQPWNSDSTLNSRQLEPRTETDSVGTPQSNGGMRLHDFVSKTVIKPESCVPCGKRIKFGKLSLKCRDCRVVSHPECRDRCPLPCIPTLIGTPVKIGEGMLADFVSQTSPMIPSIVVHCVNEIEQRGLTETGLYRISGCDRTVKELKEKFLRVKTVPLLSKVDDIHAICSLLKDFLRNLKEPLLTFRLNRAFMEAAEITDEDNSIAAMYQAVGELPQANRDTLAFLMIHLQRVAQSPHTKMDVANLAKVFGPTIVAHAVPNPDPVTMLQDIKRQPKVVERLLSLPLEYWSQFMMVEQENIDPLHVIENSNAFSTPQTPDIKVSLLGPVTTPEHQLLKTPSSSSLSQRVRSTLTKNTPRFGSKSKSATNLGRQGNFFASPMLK
# HEK293 [15] = assay: cells; conditions: Homo sapiens
# HEK293 [16] = assay: cells; conditions: Homo sapiens; remark: listed apart in the source
# [17] = target: T6, Tyrosine-protein phosphatase non-receptor type 7 (Homo sapiens, UniProt P35236); assay: redox-active compounds inhibiting HePTP phosphatase – biochemical, fluorescence, mechanism study (AID 2068); type: functional
# T6 sequence (P35236 whole entry): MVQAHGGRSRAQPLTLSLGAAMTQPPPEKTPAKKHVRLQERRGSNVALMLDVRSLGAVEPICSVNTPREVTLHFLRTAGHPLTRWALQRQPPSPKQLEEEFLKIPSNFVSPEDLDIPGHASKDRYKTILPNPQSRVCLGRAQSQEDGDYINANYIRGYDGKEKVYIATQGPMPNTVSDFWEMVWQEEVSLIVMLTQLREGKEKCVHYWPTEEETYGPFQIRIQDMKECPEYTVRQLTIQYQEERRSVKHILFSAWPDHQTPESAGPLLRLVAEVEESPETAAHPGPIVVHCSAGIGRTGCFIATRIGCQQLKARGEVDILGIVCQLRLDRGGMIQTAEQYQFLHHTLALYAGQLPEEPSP
smiles,measurement,setting,value
Cc1cc(C)c(C)c(S(=O)(=O)N2CCC(C(=O)OCC(=O)N3c4ccccc4NC(=O)C3(C)C)CC2)c1C,IC50,Bcl-2-like protein 10,45.3 µM (active)
Cc1nc2ncccn2c1-c1csc(Nc2ccc(N(C)C)cc2)n1,EC50,[1],> 120 µM (not active)
same,EC50,[2],0.108 µM (active)
same,EC50,cells,0.163 µM (active)
same,EC50,[3],< 0.1 µM (inconclusive)
same,IC50,Large T antigen,6.91 µM (active)
same,EC50,[4],0.128 µM (active)
same,IC50,Nonstructural protein 1,8.9 µM (active)
CCOc1ccccc1NC(=O)Cn1nnc(C(=O)NCc2cccs2)c1N,EC50,[1],0.146 µM (active)
same,EC50,[2],0.877 µM (active)
same,EC50,cells,0.696 µM (active)
same,EC50,[5],< 0.1 µM (active)
same,EC50,[3],< 0.1 µM (active)
same,EC50,[4],0.685 µM (active)
same,IC50,[6],> 80 µM (inactive)
O=C(c1cccc(F)c1)N1CCC2(CCN(Cc3cc(C(F)(F)F)cc(C(F)(F)F)c3)CC2)CC1,AC50,Cytochrome P450 3A4 [7],inconclusive
Cc1ccc(N2C(=O)NC(=O)/C(=C/C=C/Nc3ccccc3)C2=O)cc1,EC50,"Troponin, cardiac muscle",5.48 µM (active)
Cc1cc(=O)oc2c(CN(CC(C)C)CC(C)C)c(O)ccc12,IC50,Aminopeptidase N,74 µM (active)
CCOC(=O)c1cnc2ccc(C)cc2c1Sc1ccccc1C(=O)OC,EC50,[8],4.01 µM (active)
same,EC50,[9],> 60 µM (not active)
same,IC50,[10],> 80 µM (inactive)
same,AC50,Cytochrome P450 3A4 [11],39.8 µM (inconclusive)
CCOC(=O)c1cnc(-c2ccccc2)nc1Oc1ccccc1,AC50,Cytochrome P450 3A4 [7],inconclusive
O=C(c1ccc2c(c1)nc(S)n1c3ccccc3nc21)N1CCN(c2ncccn2)CC1,IC50,SUMO-activating enzyme,50.6 µM (active)
N#Cc1ccc(CN2CC3(CCN(C(=O)c4cccc(F)c4)CC3)C2)cc1,AC50,Cytochrome P450 3A4 [7],inconclusive
C[N+]1(CC(COCc2ccccc2)OC(=O)Cc2ccccc2)CCOCC1 (centres undefined),IC50,[12],2.41 µM (active)
same,IC50,[13],2.42 µM (active)
O=C1CC(Sc2nnnn2C2CCCCC2)C(=O)N1c1ccccc1 (centres undefined),IC50,Beta-galactosidase,> 66.6 µM (inactive)
Nc1ccc(N2CCN(C(=O)c3cccs3)CC2)cc1,IC50,Bcl-2-like protein 10,> 100 µM (inactive)
same,IC50,Protein skinhead-1,> 100 µM (inactive)
same,IC50,[14],19 µM (active)
CC1(C#CC[N+]2(C)CCCCC2)CCC2C(O1)c1ccccc1OC2(C)C (centres undefined),IC50,[12],3.03 µM (active)
same,IC50,[13],5.07 µM (active)
COc1cc2c(cc1OC)-c1nnc(-c3cccs3)n1C(C)(C)C2,EC50,HEK293 [15],> 59.6 µM (inactive)
same,EC50,HEK293 [16],> 59.6 µM (inactive)
CCCCNC(=O)CSc1nc2ccc(NC(=O)CSc3nnc(N)s3)cc2s1,IC50,[12],3.61 µM (active)
same,IC50,[13],6.28 µM (active)
COc1ccccc1NS(=O)(=O)c1cc(NC(=O)c2cc3ccccc3oc2=O)ccc1C,EC50,"Troponin, cardiac muscle",> 71.5 µM (inactive)
O=C(C1=C(O)C(=O)N(CCN2CCOCC2)C1c1ccc([N+](=O)[O-])cc1)c1cccs1 (centres undefined),EC50,"Troponin, cardiac muscle",> 71.4 µM (inactive)
COc1cccc(NC(=O)Nc2ccc3nc(-c4ccco4)c(-c4ccco4)nc3c2)c1,IC50,[17],1.09 µM (active)
Cc1nn(-c2ccccc2)c(Cl)c1/C=N/Nc1nc2ccccc2n1C,EC50,[8],1.94 µM (active)
same,EC50,[9],> 60 µM (not active)
same,IC50,[10],> 80 µM (inactive)
COc1ccc(Br)cc1/C=N/NC(=O)CNC(=O)c1cccnc1,IC50,Aminopeptidase N,27.2 µM (active)
